Here are results for three compounds from article PMC10675732 (Viruses, 2023).

Where “and” joins values, the source holds several entries; their conditions need not be identical. Equal entries are not always repeated. Where two headings read alike, the source gives them in different places. Marks after values point to notes of the source that are not given here. Bounds are passed on as bounds.

Data set [1] relates to Parent virus (A/PR/8/34 (H1N1)). Put plainly: microbe, parasite or virus in culture. The settings on record: Influenza A virus, plaque reduction assay. The format is cell-based. On the technique in general: In a plaque reduction assay, fewer plaques than in the control indicate reduced infectivity or spread.
The subject of data set [2] is A/PR/8/34 (H1N1). The data set is classed as in vivo, influenza A virus.
The test system of data set [3] is B/Hong Kong/5/72. The format is in vivo, influenza B virus.
Another data set concerns influenza B viruses. The settings on record: range over influenza B viruses, previous study; cited from earlier work.
The conditions of data set [4]: cited from earlier work.
Data set [5] relates to seasonal influenza A viruses. As to conditions: cited from earlier work.
The conditions of data set [6]: mouse, in vivo, po; cited from earlier work.
The test system of data set [7] is A/PR/8/34 (H1N1). The settings on record: viral yield; cited from earlier work.
For another data set, the system named is influenza A viruses. The settings on record: range over influenza A viruses, previous study; cited from earlier work.
The test system of data set [8] is B/Hong Kong/5/72. As to conditions: viral yield; cited from earlier work.
Another data set in a line: in vivo. The settings on record: mouse, sc.
The conditions of data set [9]: human, in vivo, po; cited from earlier work.

As to `NC(=O)c1nc(F)c[nH]c1=O` [Favipiravir], the EC50 – broadly, the concentration that produces a half-maximal response – in data set [1] is 22300 ± 1010 nM.

Regarding `CCOC(=O)C1=C[C@@H](OC(CC)CC)[C@H](NC(C)=O)[C@@H](N)C1` [oseltamivir phosphate], the “Body weight loss induced by infection” value in the data set with A/PR/8/34 (H1N1) [2] (in vivo) and with B/Hong Kong/5/72 [3] (in vivo) was “suppressed body weight loss” each time. For the same compound, the “Virus titres in the lungs compared to the vehicle-treated group” value with A/PR/8/34 (H1N1) [2] (in vivo) was “significantly low”. Moreover, the Mice survived in the data set on A/PR/8/34 (H1N1) [2] (n = 10) is given as 100%; in the data set with B/Hong Kong/5/72 [3] (n = 10) it was 70%.

`O=C1c2c(O)c(=O)ccn2N([C@@H]2c3ccccc3SCc3c2ccc(F)c3F)[C@@H]2COCCN12` [baloxavir acid]: the EC90 (commonly the concentration at which the effect reaches the 90% level) with influenza B viruses is 2.2 to 6.5 nM; in the data set on A/PR/8/34 (H1N1) [7], 0.79 nM; in the data set with influenza A viruses, 0.46 to 0.98 nM; with B/Hong Kong/5/72 [8] it was 2.2 nM. Further, the Plasma concentration in data set [4] (10 mg/kg s.c. single dose, 2 h after dosing) is 44.0 ng/mL; in [4] (10 mg/kg s.c. single dose, 4 h after dosing) it was 47.2 ng/mL; in data set [4] (10 mg/kg s.c. single dose, 8 h after dosing), 34.4 ng/mL; in data set [4] (10 mg/kg s.c. single dose, 48 h after dosing), 17.8 ng/mL; in data set [4] (10 mg/kg s.c. single dose, 120 h after dosing) it was 6.79 ng/mL; in data set [4] (10 mg/kg s.c. single dose, 168 h after dosing) it was 6.51 ng/mL. Moreover, the Plasma concentration in data set [4] (10 mg/kg s.c. single dose, 216 h after dosing) was 5.97 ng/mL; in [4] (mouse, in vivo), 26.1 ng/mL. Moreover, the EC50 in data set [1] was determined as 1.69 ± 0.57 nM. Besides, the “mean EC50 against seasonal influenza A viruses relative to influenza B viruses” value in data set [5] was “five to ten times lower”. In addition, the “Half-life of baloxavir acid in plasma” value in data set [6] is 2.2 to 3.1 h. The “Body weight loss induced by infection” value in the data set on A/PR/8/34 (H1N1) [2] (in vivo) and in the data set on B/Hong Kong/5/72 [3] (in vivo) was “suppressed body weight loss” each time. Besides, the Mortality entry in the data set with A/PR/8/34 (H1N1) [2] (in vivo) is “complete elimination of mortality”. Further, the “Mortality due to infection” value in the data set on A/PR/8/34 (H1N1) [2] (in vivo) and in the data set with B/Hong Kong/5/72 [3] (in vivo) was “completely eliminated mortality” throughout. For the same compound, the Survival entry in the data set with A/PR/8/34 (H1N1) [2] (in vivo) and in the data set with B/Hong Kong/5/72 [3] (in vivo) was “all mice survived” each time. For the same compound, the “Survival Rate” value with A/PR/8/34 (H1N1) [2] (in vivo) is 100 ** %; in the data set on B/Hong Kong/5/72 [3] (in vivo), 50 * % and 100 ** % and 80 * % and 50%. Also, the “Virus titres in the lungs compared to the oseltamivir phosphate group” value in the data set with A/PR/8/34 (H1N1) [2] (in vivo) and in the data set on B/Hong Kong/5/72 [3] (in vivo) was “significantly lower” throughout. The “Virus titres in the lungs compared to the vehicle-treated group” value with A/PR/8/34 (H1N1) [2] (in vivo) is “significantly low”; with B/Hong Kong/5/72 [3] (in vivo, sc, 10 mg/kg) it was “significantly low”. Further, the half-life (in general, how long it takes for the measured level to halve) in the data set “in vivo” (female, BALB/c, 3.2 mg/kg) is 74.2 h; in the data set “in vivo” (female, BALB/c, 6.4 mg/kg), 84.2 h; in “in vivo” (10 mg/kg) it was 49.9 h. In addition, the “Half-life of baloxavir acid in humans” value in data set [9] is 49 to 91 h. Besides, the Survival rate in the data set on B/Hong Kong/5/72 [3] (in vivo) was not above 50%. In addition, the Survival vs vehicle result with B/Hong Kong/5/72 [3] (in vivo) is given as “significantly improved survival”.
